The values that follow come from patent publication US20110288052A1, “NOVEL COMPOUNDS, PHARMACEUTICAL COMPOSITIONS CONTAINING SAME, AND METHODS OF USE FOR SAME” (priority 2008, published 2011).

SMILES strings stand for the structures. Converted amounts (≈) assume the structure as drawn. Where two headings read alike, the source gives them in different places. A value given as a limit tells only on which side of the number the result lay.

Series [1] has as its system MCF-7 human breast cancer cells. The series can be described thus: XTT cytotoxicity assay, MCF-7 (M). It counts as cell-based. To be noted: MCF7, MCF-7, 72 hours. The procedure: XTT Cytotoxicity Assay The XTT assay is a non-radioactive alternative for the [^51Cr] release cytotoxicity assay. XTT is a tetrazolium salt that is reduced to a formazan dye only by metabolically active, viable cells. The reduction of XTT is measured spectrophotometrically as OD490-OD650. To measure the cytotoxicity of specific compounds against cancer cells, 9×10^3 MCF-7 human breast cancer cells (shown in the tables as “(M)”), obtained from the American Type Culture Collection are plated per well in 96 well plates in DMEM medium with 10% fetal bovine serum, insulin, penicillin, and streptomycin. Following overnight culture at 37° C. and 5% CO2, the compounds to be tested, dissolved in DMSO, are added to the wells in 1 μl volume at the following concentrations: 80, 40, 20, 10, 5, 2.5, 1.25, and 0.625 μg/ml in triplicate. Additional concentrations are tested if required. 1 μl of DMSO is added to triplicate wells are the vehicle control. C75 is run at 40, 20, […], and 5 μg/ml in triplicate as positive controls. After 72 hours of incubation, cells are incubated for 4 hours with the XTT reagent as per manufacturer's instructions (Cell Proliferation Kit II (XTT) Roche). Plates are read at OD490 and OD650 on a Molecular Devices SpectraMax Plus Spectrophotometer. Three wells containing the XTT reagent without cells serve as the plate blank. XTT data are reported as OD490-OD650. Averages and standard error of the mean are computed using SOFTmax Pro software (Molecular Dynamics). The IC50 for the compounds is defined as the concentration of drug leading to a 50% reduction in OD490-OD650 compared to controls. The OD490-OD650 are computed by the SOFTmax PRO software (Molecular Devices) for each compound concentration. IC50 is calculated by linear regression, plotting the FAS activity as percent of control versus drug concentrations. Linear regression, best-fit line, r^2, and 95% confidence intervals are determined using Prism Version 3.0 (Graph Pad Software).

The nature of series [2]: Weight loss screen. To be noted: 60 mg/kg intraperitoneally. The series is classed as in vivo, Balb/C mice. On the procedure: Weight Loss Screen Balb/C mice (Jackson Labs) are utilized for the initial weight loss screening. Animals are housed in temperature and 12 hour day/night cycle rooms and fed mouse chow and water ad lib. Three mice are utilized for each compound tested with vehicle controls in triplicate per experiment. For the experiments, mice are housed separately for each compound tested three mice to a cage. Compounds are diluted in DMSO at 10 mg/ml and mice are injected intraperitoneally with 60 mg/kg in approximately 100 μl of DMSO or with vehicle alone. Mice are observed and weighed daily; average weights and standard errors are computed with Excel (Microsoft). The experiment continues until treated animals reach their pretreatment weights.

The nature of series [3]: Solubility problem noted during the assays. It counts as physicochemical. Particulars: for solubility: read-out: Sol Prob (solubility problem at concentration).
Series [4] concerns Staphylococcus aureus (ATCC # 29213). Put plainly: Broth microdilution antimicrobial assay, S. aureus. The series is classed as cell-based. The procedure: Antimicrobial Properties A broth microdilution assay is used to assess the antimicrobial activity of the compounds. Compounds are tested at twofold serial dilutions, and the concentration that inhibits visible growth (OD600 at 10% of control) is defined as the MIC. Microorganisms tested include Staphylococcus aureus (ATCC # 29213), Enterococcus faecalis (ATCC # 29212), Pseudomonas aerpginosa (ATCC # 27853), and Escherichia coli (ATCC # 25922). The assay is performed in two growth media, Mueller Hinton Broth and Trypticase Soy Broth.
A blood (Tsoy/5% sheep blood) agar plate is inoculated from frozen stocks maintained in T soy broth containing 10% glycerol and incubated overnight at 37° C. Colonies are suspended in sterile broth so that the turbidity matches the turbidity of a 0.5 McFarland standard. The inoculum is diluted 1:10 in sterile broth (Mueller Hinton or Trypticase soy) and 195 μl is dispensed per well of a 96-well plate. The compounds to be tested, dissolved in DMSO, are added to the wells in 5 μl volume at the following concentrations: 25, 12.5, 6.25, 3.125, 1.56 and 0.78 μg/ml in duplicate. Additional concentrations are tested if required. 5 μl of DMSO added to duplicate wells are the vehicle control. Serial dilutions of positive control compounds, vancomycin (E. faecalis and S. aureus) and tobramycin (E. coli and P. aerpginosa), are included in each run.
After 24 hours of incubation at 37° C., plates are read at OD600 on a Molecular Devices SpectraMax Plus Spectrophotometer. Average OD600 values are computed using SOFTmax Pro Software (Molecular Devices) and MIC values are determined by linear regression analysis using Prism version 3.02 (Graph Pad Software, San Diego). The MIC is defined as the concentration of compound required to produce an OD600 reading equivalent to 10% of the vehicle control reading.
(Broth dilution looks for growth in wells or tubes with falling amounts of substance.)

[5] abbreviates: ATCC29213, Mueller Hinton Broth, read-out: SA/MH (MIC).
[6] abbreviates: ATCC29213, Trypticase Soy Broth, read-out: SA/Tsoy (MIC).

Take `CCCCCCCCC1(C)SC(=O)C=C1OCC(=O)Nc1ccc(-c2cccs2)cc1` (stereo not shown): the IC50 (as a rule, the concentration at which inhibition is half-maximal) in series [1] was over 80 µg/mL.
`CCCCCCCCC1(C)SC(=O)C=C1OCC(=O)Nc1ccc2c(c1)OCO2` (stereo not shown) returned an IC50 in series [1] of 8.2 µg/mL (≈ 19.5 µM).
Consider `CCCCCCCCC1(C)SC(=O)C=C1OCC(=O)Nc1ccc(OC(F)(F)F)cc1` (stereo not shown), for which the “Weight Loss” value in series [2] (day 1) is given as 60 mg/kg: 2.2% (day 1). Besides, the IC50 in series [1] came to 1.8 µg/mL (≈ 3.92 µM).
For the molecule `CCCCCCCCC1(C)OC(=O)C=C1OCC(=O)Nc1ccc(Cl)cc1` (stereo not shown), the solubility in series [3] was found to be 80 µg/mL (≈ 203 µM). The MIC stood at 6 µg/mL (≈ 15.2 µM) in series [4] (setting [5]) and 3 µg/mL (≈ 7.62 µM) in series [4] (setting [6]). Further, 6 µg/mL (≈ 15.2 µM) corresponded to half-maximal inhibition in series [1] (IC50).
`CCCCCCCCC1(C)SC(=O)C=C1OCC(=O)Nc1ccc(C(F)(F)F)cc1` (stereo not shown) had a half-maximal inhibitory concentration (IC50) in series [1] of 2.2 µg/mL (≈ 4.96 µM).
Consider `CCCCCCCCC1(C)SC(=O)C=C1OCC(=O)Nc1ccccc1SC` (stereo not shown), for which, in series [3], the solubility was determined as 40 µg/mL (≈ 94.9 µM). Also, it took 26.9 µg/mL (≈ 63.8 µM) to reach half-maximal inhibition in series [1] (IC50).
Consider `CCCCCCCCC1(C)SC(=O)C=C1OCC(=O)Nc1cccc(OC(F)(F)F)c1` (stereo not shown), for which the solubility in series [3] worked out at 40 µg/mL (≈ 87 µM). This molecule also yielded a concentration for half-maximal inhibition (IC50) in series [1] of 6.4 µg/mL (≈ 13.9 µM).
Turning to `CCCCCCCCC1(C)SC(=O)C=C1OCC(=O)Nc1ccccc1` (stereo not shown), inhibition in series [1] was half-maximal at 6.2 µg/mL (≈ 16.5 µM) (IC50).
As for `CCCCCCCCOc1ccc(NC(=O)COC2=CC(=O)SC2(C)CCCCCCCC)cc1` (stereo not shown), the 50% inhibitory concentration (IC50) in series [1] was over 80 µg/mL.
In the case of `CCCCCCCC[C@]1(C)SC(=O)C=C1OCC(=O)Nc1ccccc1OC(F)(F)F`, in series [1], the half-maximal inhibitory concentration (IC50) is over 80 µg/mL.
Turning to `CCCCCCCCC1(C)SC(=O)C=C1OCC(=O)Nc1ccc(Oc2ccc(Cl)cc2)cc1` (stereo not shown), the “Weight Loss” value in series [2] (day 4) is recorded as 60 mg/kg: 3.1% (day 4). This molecule also registered a 50% inhibitory concentration (IC50) in series [1] of 3.1 µg/mL (≈ 6.17 µM).
For `CCCCCCCCC1(C)SC(=O)C=C1OCC(=O)Nc1ccc(Cl)cc1` (stereo not shown), the “Solubility remark on FAS IC50” value in series [3] (FAS assay) is “Limited by Solubility”. The MIC was determined as 6 µg/mL (≈ 14.6 µM) in series [4] (setting [5]) and 3 µg/mL (≈ 7.32 µM) in series [4] (setting [6]). Also, in series [2] (day 1), the “Weight Loss” value is reported as 60 mg/kg: 0.2% (day 1). In series [1], this molecule had an IC50 of 5.2 ± 2 µg/mL (≈ 12.7 µM).
`CCCCCCCCC1(C)SC(=O)C=C1OCC(=O)Nc1ccc(Cl)cc1C(F)(F)F` (stereo not shown) returned an IC50 in series [1] of 9.6 µg/mL (≈ 20.1 µM).
Regarding `CCCCCCCCC1(C)SC(=O)C=C1OCC(=O)Nc1cccc(C(F)(F)F)c1` (stereo not shown), in series [3], the solubility worked out at 80 µg/mL (≈ 180 µM). Also, the IC50 in series [1] is 5.9 µg/mL (≈ 13.3 µM).
On to `CCCCCCCC[C@]1(C)SC(=O)C=C1OCC(=O)Nc1ccccc1C(F)(F)F`, for which the solubility in series [3] turned out to be 80 µg/mL (≈ 180 µM). The 50% inhibitory concentration (IC50) in series [1] came to 17.6 µg/mL (≈ 39.7 µM).
In the case of `CCCCCCCCC1(C)SC(=O)C=C1OCC(=O)Nc1ccc(Cl)cc1Cl` (stereo not shown), the solubility in series [3] stood at 40 µg/mL (≈ 90 µM). In series [1], this molecule had a 50% inhibitory concentration (IC50) of 16.8 µg/mL (≈ 37.8 µM).
`CCCCCCCCC1(C)SC(=O)C=C1OCC(=O)Nc1ccccc1N1CCCCC1` (stereo not shown) registered a half-inhibitory concentration (IC50) in series [1] of 18.6 µg/mL (≈ 40.6 µM).
On to `CCCCCCCCC1(C)SC(=O)C=C1OCC(=O)Nc1ccc(SC)cc1` (stereo not shown), for which, in series [3], the solubility is 40 µg/mL (≈ 94.9 µM). In addition, the midpoint of inhibition in series [1], the IC50, lay at 7.9 µg/mL (≈ 18.7 µM).
On to `CCCCCCCCC1(C)SC(=O)C=C1OCC(=O)Nc1ccc(OC)cc1` (stereo not shown), for which, in series [1], half-maximal inhibition (IC50) was put at 9.7 µg/mL (≈ 23.9 µM).
